{"source": "paper PMC7308271", "about": "“Discovery of a new class of orthosteric antagonists with nanomolar potency at extrasynaptic GABAA receptors” (Scientific Reports, 2020)", "key": {"[1]": {"tested_on": "α1,2,6 GABAΑ receptors", "assay": "FMP assay, α1,2,6 receptors (summary)", "format": "cell-based, human", "details": "range over subtypes; read-out: potency (IC50) at α1,2,6 receptors", "protocol": "(§1) HEK293 cells were maintained in DMEM containing GlutaMAX-I, supplemented with 10% FBS and 1% penicillin-streptomycin and incubated at 37 °C and a humidity of 5% CO2. For expression of δ-containing GABAΑ receptors, a HEK293 Flp-In^ΤΜ cell line stably expressing the human GABAΑ δ-subunits (referred to as δ-HEK) was used and the γ-containing subtypes was expressed in a background HEK293 Flp-In^ΤΜ cell line stably expressing the G-protein coupled peptide receptor NPBWR2 (referred to as HEK background)[26], both positively selected for using 200 μg/mL hygromycin B. α1β2γ2 receptors were stably expressed in a HEK293 cell line maintained as above but with no selection (gift from Marianne L. Jensen, Neurosearch). […]\n(§2) The FMP assay was performed as previously described with a few modifications. […] Data was obtained as changes in fluorescence units (∆RFU) by measuring emission at 560 nm caused by excitation at 530 nm. […]\n(§3) Data obtained in the FMP assay are given as relative changes in fluorescence units (ΔRFU) by subtracting the average of the baseline fluorescence signal from the peak fluorescence signal after compound addition. […]"}, "[2]": {"target": "T1, human α4β1δ receptors in δ-HEK cells (Homo sapiens, UniProt P18505+P48169)", "T1 construct": "expressed in transfected cells; host or cells: δ-HEK (HEK293 Flp-In stably expressing human δ), transiently transfected with α4 and β1 1:1", "T1 sequence (P48169 36-554)": "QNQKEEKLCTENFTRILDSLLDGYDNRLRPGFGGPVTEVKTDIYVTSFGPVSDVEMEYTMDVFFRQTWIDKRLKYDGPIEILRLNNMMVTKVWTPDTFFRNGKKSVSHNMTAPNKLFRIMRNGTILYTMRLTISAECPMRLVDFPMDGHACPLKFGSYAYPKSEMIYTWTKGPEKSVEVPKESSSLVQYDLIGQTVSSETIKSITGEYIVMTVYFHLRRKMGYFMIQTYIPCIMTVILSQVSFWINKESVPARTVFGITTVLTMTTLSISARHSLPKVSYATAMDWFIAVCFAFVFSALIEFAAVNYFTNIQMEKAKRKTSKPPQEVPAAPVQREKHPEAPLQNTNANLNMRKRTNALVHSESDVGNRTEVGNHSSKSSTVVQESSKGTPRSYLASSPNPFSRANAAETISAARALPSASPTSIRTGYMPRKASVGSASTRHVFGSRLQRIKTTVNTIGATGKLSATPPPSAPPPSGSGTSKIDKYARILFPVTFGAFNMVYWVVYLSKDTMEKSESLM", "T1 sequence (P18505 26-474)": "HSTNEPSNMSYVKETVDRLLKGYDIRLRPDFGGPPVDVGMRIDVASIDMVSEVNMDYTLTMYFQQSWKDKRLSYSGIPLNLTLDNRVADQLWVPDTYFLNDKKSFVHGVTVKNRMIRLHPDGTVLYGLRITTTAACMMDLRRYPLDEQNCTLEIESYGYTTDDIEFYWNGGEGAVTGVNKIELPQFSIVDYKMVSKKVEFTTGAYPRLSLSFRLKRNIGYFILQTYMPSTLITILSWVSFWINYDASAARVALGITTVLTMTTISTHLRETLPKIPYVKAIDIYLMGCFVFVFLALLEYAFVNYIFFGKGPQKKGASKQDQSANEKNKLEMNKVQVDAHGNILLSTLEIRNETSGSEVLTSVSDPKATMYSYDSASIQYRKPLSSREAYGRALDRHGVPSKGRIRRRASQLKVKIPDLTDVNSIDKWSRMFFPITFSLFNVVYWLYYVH", "T1 sequence (O14764 25-452 partner)": "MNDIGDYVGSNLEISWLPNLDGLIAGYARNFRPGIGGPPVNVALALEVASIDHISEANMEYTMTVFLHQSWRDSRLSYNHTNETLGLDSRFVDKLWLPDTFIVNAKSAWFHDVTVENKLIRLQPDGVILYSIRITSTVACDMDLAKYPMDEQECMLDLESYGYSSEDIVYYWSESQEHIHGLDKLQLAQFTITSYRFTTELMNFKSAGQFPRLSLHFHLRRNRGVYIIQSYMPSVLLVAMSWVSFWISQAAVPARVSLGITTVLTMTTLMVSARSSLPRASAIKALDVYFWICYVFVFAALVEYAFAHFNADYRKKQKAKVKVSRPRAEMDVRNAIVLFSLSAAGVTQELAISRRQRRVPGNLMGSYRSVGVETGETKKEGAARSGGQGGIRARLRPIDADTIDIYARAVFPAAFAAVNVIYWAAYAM", "assay": "Whole-cell patch-clamp electrophysiology, concentration-response", "format": "cell-based", "excerpt": "(§4) To express recombinant GABAΑ receptors human α1, α2, α3, α5, α6, β2, γ2 (pcDNA3.1/Zeo) and α4, β1 (pUNIV)[26] subunit cDNA were transiently transfected into either δ-HEK or HEK background cells. δ-HEK cells were transfected with α- and β-subunits in a 1:1 ration whereas HEK background cells were transfected with α-, β- and γ-subunits in a 1:1:2 ratio. Human BGT1 (pcDNA5/FRT)[43] was transiently transfected into the δ-HEK cell line. δ-HEK cells transfected for whole-cell patch-clamp recordings were co-transfected with green fluorescent protein (GFP) as well as α- and β-subunits in a 0.5:1:1 ratio (0.8 μg + 1.6 μg + 1.6 μg in a 6 cm dish) in order to identify transfected cells. The transfection was carried out using Polyfect as transfection reagent according to the manufactures protocol expect for using half the recommended volume of Polyfect."}, "[3]": {"tested_on": "α3−5 containing GABAΑ receptors", "assay": "FMP assay, α3−5 containing receptors (summary)", "format": "cell-based, human", "details": "range over subtypes; read-out: potencies (IC50) at α3−5 containing receptors", "protocol": "as §1, §2, §3"}, "[4]": {"target": "T2, human BGT1 (Homo sapiens, UniProt P48065)", "T2 construct": "expressed in transfected cells; host or cells: δ-HEK cells, transient transfection (pcDNA5/FRT)", "T2 sequence (P48065 1-614)": "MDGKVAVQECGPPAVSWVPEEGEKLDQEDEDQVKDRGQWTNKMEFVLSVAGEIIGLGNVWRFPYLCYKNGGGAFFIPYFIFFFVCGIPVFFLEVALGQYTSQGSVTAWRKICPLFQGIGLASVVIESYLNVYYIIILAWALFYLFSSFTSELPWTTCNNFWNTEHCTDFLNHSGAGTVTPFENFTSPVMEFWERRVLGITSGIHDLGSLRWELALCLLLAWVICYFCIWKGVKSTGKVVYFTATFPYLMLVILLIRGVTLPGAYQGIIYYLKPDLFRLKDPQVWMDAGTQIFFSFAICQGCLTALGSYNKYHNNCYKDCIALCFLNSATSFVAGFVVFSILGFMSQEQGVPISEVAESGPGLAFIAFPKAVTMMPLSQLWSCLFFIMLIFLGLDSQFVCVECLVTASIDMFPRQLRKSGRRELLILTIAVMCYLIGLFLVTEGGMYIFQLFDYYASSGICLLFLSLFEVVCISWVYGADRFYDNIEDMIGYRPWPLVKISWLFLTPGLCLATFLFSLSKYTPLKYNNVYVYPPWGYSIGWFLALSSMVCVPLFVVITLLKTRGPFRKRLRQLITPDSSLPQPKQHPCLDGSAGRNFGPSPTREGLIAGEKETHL", "assay": "Fluorescence interference control: BGT1-mediated GABA uptake in the FMP assay", "format": "cell-based", "details": "110 μM GABA uptake by BGT1 in δ-HEK cells; 2027 at 30, 10, 3 μM", "excerpt": "as §4\nassay (perf ormed essentially as previously described in methods section and based on Al-Khawaja et al.).\nin d-HEK cells was not decreased/quenched by 2027 in any of the tested concentrations. Data are shown as\nmeans ± SD f rom a representative expe riment perf orme d in triplicate (n=2).\nBGT1 expressed in HEK-δ cells"}}, "note": "“Also recorded” adds a separate entry of the source.", "data": [{"compound": "O=C(Nc1cccc(C(=O)N2CCC3(CCNCC3)CC2)c1)c1cccs1", "note": "[compound 018, N-(3-(3,9-diazaspiro[5.5]undecane-3-carbonyl)phenyl)thiophene-2-carboxamide]", "values": [{"measurement": "IC50", "setting": "[1]", "result": "240 to 790", "unit": "nM"}, {"measurement": "IC50", "setting": "[2]", "result": 10.8, "unit": "nM"}, {"measurement": "potency in patch-clamp relative to FMP assay", "setting": "[2]; α4β1δ", "result": 9, "unit": "times"}, {"measurement": "IC50", "setting": "[3]", "result": "37 to 88", "unit": "nM"}]}, {"compound": "CC(=O)Nc1cccc(C(=O)N2CCC3(CCNCC3)CC2)c1", "note": "[compound 2027, N-(3-(3,9-diazaspiro[5.5]undecane-3-carbonyl)phenyl)acetamide]", "values": [{"measurement": "interference with / quenching of the fluorescence signal", "setting": "[4]", "result": "does not quench; also recorded: do not interfere"}]}]}
